The source of these data is patent US8581605B2 (priority 2006, dated 2013).

The format of the assay is biochemical. The conditions noted are these: pH 7.4.

Regarding α-hemolysin [αHL], the “single-channel conductance of the αHL channel” value was around 900 pS.
